Measurements: patent publication US11415579B2, “Assay for measuring a rate of reaction between a target and a ligand candidate” (Imperial College Innovations Ltd., priority 2016, dated 2022)
“And” between values parts separate entries of the source, which are not always exact repeats. Equal entries are not always repeated.

Legend:
[1] = Kinetic thiol consumption assay with model thiol glutathione; type: physicochemical; set-up: Rate constant with glutathione (k(GSH)): unit not given here; conditions: for Rate constant with glutathione (k(GSH)): 500 μM ligand, 5 μM thiol, phosphate buffer pH 8; for Rate constant with Glutathione: Protein: Glutathione, cysteine position NA, in h-1
In short: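 First, 5 μM glutathione in degassed phosphate buffer (pH 8) receives immobilized TCEP beads (2% v/v). Then acrylamide is added and plates incubate 1 h at room temperature. Finally, fluorescence (380/470 nm) is normalized and fitted to first-order decay for rate constants.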

[2] = molecular target: T1, human cyclin-dependent kinase 2 (Cdk2) (Homo sapiens, UniProt P24941); test: Kinetic thiol consumption assay with wild type Cdk2 (C177); type: binding; set-up: key to Rate enhancement, Cdk2 WT: k(Cdk2) divided by k(model thiol); Rate constant with Cdk2 (k(Cdk2)): unit not given here; conditions: for Rate constant with Cdk2 (k(Cdk2)): 500 μM ligand, 5 μM thiol, phosphate buffer pH 8; for Rate enhancement, Cdk2 WT: no additional mutations; for Rate constant with Cdk2 WT: Protein: Cdk2, cysteine position WT, in h^-1; for k(Cdk2)/k(Cdk2_mut) rate enhancement: model thiol Cdk2[C177A, F80C, K278C]; for k(Cdk2)/k(GSH) rate enhancement: model thiol glutathione
T1 construct: poly-histidine; made in house; host or cells: E. coli
In short: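 Thiol 5 μM (Cdk2 or model thiol), degassed phosphate buffer pH 8, TCEP beads 2% v/v. Plates incubated 1 h RT, ex/em 380/470 nm. First-order decay fit → rate constant; ratio Cdk2/model thiol = rate enhancement.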

[3] = molecular target: T2, Cdk2[C177A, F80C, K278C] (Homo sapiens, UniProt P24941, C177A/F80C/K278C); test: Kinetic thiol consumption assay with mutant Cdk2 as model thiol; type: binding; set-up: unit not given here; conditions: 500 μM ligand, 5 μM thiol, phosphate buffer pH 8
T2 construct: poly-histidine; made in house; host or cells: E. coli
In short: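 Model thiol: His-tagged human Cdk2 C177A/F80C/K278C (two engineered surface cysteines), E. coli-expressed, 5 μM in degassed phosphate buffer pH 8 with immobilized TCEP beads (2% v/v). Fluorescence (ex/em 380/470 nm) followed over time at room temperature, normalized to DMSO/thiol control. First-order decay fit gives rate constants.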

[4] = molecular target: T3, Cdk2(C177A, F80C) (Homo sapiens, UniProt P24941, C177A/F80C); test: Kinetic thiol consumption assay with Cdk2 mutant F80C, incl. kobs versus concentration (Kd, k2); type: binding; set-up: key to Rate enhancement, Cdk2 F80C: Cdk2 rate constant divided by model-thiol rate constant; conditions: additional mutation C177A; for Rate constant with Cdk2 F80C: Protein: Cdk2, cysteine position F80C, in h^-1
T3 construct: poly-histidine; made in house; host or cells: E. coli
In short: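 His-tagged Cdk2(C177A/F80C) from E. coli or model thiol, 5 μM in degassed phosphate buffer pH 8 with TCEP beads, reacted with acrylamide ligands; fluorescence (ex/em 380/470 nm) normalized to DMSO control and fitted to first-order decay for kobs. Kd and k2 obtained from hyperbolic fit of kobs versus ligand concentration.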

[5] = molecular target: T4, Cdk2(H71C) (C177A) (Homo sapiens, UniProt P24941, C177A/H71C); test: Kinetic thiol consumption assay with Cdk2 mutant H71C; type: binding; set-up: key to Rate enhancement, Cdk2 H71C: rate constant with Cdk2 ÷ rate constant with model thiol (fold); conditions: additional mutation C177A; for Rate constant with Cdk2 H71C: Protein: Cdk2, cysteine position H71C, in h^-1
T4 construct: poly-histidine; made in house; host or cells: E. coli
In short: (§1)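 5 μM thiol, degassed phosphate pH 8, 2% v/v immobilized TCEP beads; 1 h RT; fluorescence ex 380/em 470 nm; normalized vs DMSO/thiol-only; first-order exponential decay fit → rate constant; Cdk2 k / model-thiol k = rate enhancement per acrylamide.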

[6] = molecular target: T5, Cdk2(S276C) (C177A) (Homo sapiens, UniProt P24941, C177A/S276C); test: Kinetic thiol consumption assay with Cdk2 mutant S276C; type: binding; set-up: key to Rate enhancement, Cdk2 S276C: rate constant with Cdk2 ÷ rate constant with model thiol (fold); conditions: additional mutation C177A; for Rate constant with Cdk2 S276C: Protein: Cdk2, cysteine position S276C, in h^-1
T5 construct: poly-histidine; made in house; host or cells: E. coli
In short: as §1

[7] = molecular target: T6, Cdk2(N272C) (C177A) (Homo sapiens, UniProt P24941, C177A/N272C); test: Kinetic thiol consumption assay with Cdk2 mutant N272C; type: binding; set-up: key to Rate enhancement, Cdk2 N272: rate constant with Cdk2 ÷ rate constant with model thiol (fold); conditions: for Rate enhancement, Cdk2 N272: Cdk2 N272, additional mutation C177A; for Rate constant with Cdk2 N272C: Protein: Cdk2, cysteine position N272C, additional mutation C177A, in h^-1
T6 construct: poly-histidine; made in house; host or cells: E. coli
In short: as §1

[8] = molecular target: T7, Cdk2(T182C) (C177A) (Homo sapiens, UniProt P24941, C177A/T182C); test: Kinetic thiol consumption assay with Cdk2 mutant T182C; type: binding; set-up: key to Rate enhancement, Cdk2 T182C: rate constant with Cdk2 ÷ rate constant with model thiol (fold); conditions: additional mutation C177A; for Rate constant with Cdk2 T182C: Protein: Cdk2, cysteine position T182C, in h^-1
T7 construct: poly-histidine; made in house; host or cells: E. coli
In short: as §1

[9] = molecular target: T8, Cdk2(R122C) (C177A) (Homo sapiens, UniProt P24941, C177A/R122C); test: Kinetic thiol consumption assay with Cdk2 mutant R122C; type: binding; set-up: key to Rate enhancement, Cdk2 R122C: rate constant with Cdk2 ÷ rate constant with model thiol (fold); conditions: additional mutation C177A; for Rate constant with Cdk2 R122C: Protein: Cdk2, cysteine position R122C, in h-1
T8 construct: poly-histidine; made in house; host or cells: E. coli
In short: as §1

[10] = molecular target: T9, Cdk2(S181C) (C177A) (Homo sapiens, UniProt P24941, C177A/S181C); test: Kinetic thiol consumption assay with Cdk2 mutant S181C; type: binding; set-up: key to Rate enhancement, Cdk2 S181C: rate constant with Cdk2 ÷ rate constant with model thiol (fold); conditions: additional mutation C177A; for Rate constant with Cdk2 S181C: Protein: Cdk2, cysteine position S181C, in h^-1
T9 construct: poly-histidine; made in house; host or cells: E. coli
In short: as §1

Row | Structure (SMILES) | Rate constant with glutathione (k(GSH)) [1] | Rate constant with Glutathione [1] | Rate constant with Cdk2 (k(Cdk2)) [2] | Rate enhancement, Cdk2 WT [2] | Rate constant with Cdk2 WT [2] | k(Cdk2)/k(Cdk2_mut) rate enhancement [2] | k(Cdk2)/k(GSH) rate enhancement [2] | Rate constant with Cdk2[C177A, F80C, K278C] (k(Cdk2_mut)) [3] | Rate enhancement, Cdk2 F80C [4] | Rate constant with Cdk2 F80C [4] | Rate enhancement, Cdk2 H71C [5] | Rate enhancement, Cdk2 S276C [6] | Rate constant with Cdk2 S276C [6] | Rate enhancement, Cdk2 N272 [7] | Rate constant with Cdk2 N272C [7] | Rate enhancement, Cdk2 T182C [8] | Rate constant with Cdk2 T182C [8] | Rate enhancement, Cdk2 R122C [9] | Rate enhancement, Cdk2 S181C [10] | Rate constant with Cdk2 S181C [10] | further results
1 | C=CC(=O)Nc1ccccc1C(=O)c1ccccc1 [EL-1004] | 0.01818 | 0.01811 | 0.06444 | 3.558 | 0.06444 | 0.3351 | 3.545 | 0.1923 | 22.32 | 0.4042 | 2.131 | 1.281 | 0.02319 | 0.4117 | 0.007455 | 7.09 | 0.1284 | 0.9845 | 0.9371 | 0.01697 | Rate constant with Cdk2 H71C [5]: 0.03859; Rate constant with Cdk2 R122C [9]: 0.01783
2 | C=CC(=O)Nc1cccc(C(F)(F)F)c1 [EL-1007] | 0.025 and 0.02461 | 0.02462 | 0.035 and 0.03473 | 1.411 | 0.03473 | 0.5928 | 1.4 and 1.411 | 0.05859 | 1.215 | 0.02991 | 0.2924 | 1.314 | 0.03236 | 0.3406 | 0.008386 | 2.5 | 0.06154 | 0.6852 | 0.487 | 0.01199 | hit classification, Example 1 ([2]; hits defined as kCdk2/kGSH>5.8 (3 standard deviations over the mean)): negative compound; Rate constant with Cdk2 H71C [5]: 0.007199; Rate constant with Cdk2 R122C [9]: 0.01687
3 | C=CC(=O)Nc1ccccc1-c1ccccc1 [EL-1012] | 0.00837 | 0.008054 | 0.00519 | 0.6362 | 0.005124 | 0.1479 | 0.6204 | 0.03512 | 1.711 | 0.01378 | 0.3662 | 0.2841 | 0.002288 | 0 |  | 2.136 | 0.0172 | 0.6595 | 0.7584 | 0.006108 | Rate constant with Cdk2 H71C [5]: 0.002949; Rate constant with Cdk2 R122C [9]: 0.005312
4 | C=CC(=O)NCc1ccc(-c2ccccc2)cc1 [EL-1050] | 0.00204 | 0.002862 | 0.00166 | 0.579 | 0.001657 | 1.317 | 0.813 | 0.00126 | 0 |  | 0 | 0 |  | 0.1784 | 0.0005105 | 0.5328 | 0.001525 | 0 | 0.5143 | 0.001472 | 
5 | C=CC(=O)NC(C)c1ccc2c(c1)OCO2 (stereo not drawn) [EL-1051] | 0.00461 | 0.004569 | 0.00298 | 0.6621 | 0.003025 | 0.8251 | 0.6464 | 0.00361 | 0.1378 | 0.0006296 | 0 | 1.226 | 0.005603 | 0.3701 | 0.001691 | 0.6691 | 0.003057 | 0.3414 | 0.6373 | 0.002912 | Rate constant with Cdk2 R122C [9]: 0.00156
